Experimental data: patent US4136116A, “Tricyclic compounds” (Hoffmann-La Roche Inc., priority 1975, dated 1979)
Structures can show the parent of a compound that is named as a salt.

These molecules were tested on salivation in rabbits (assay: Salivation inhibition in rabbits (pilocarpine-increased salivation; anticholinergic action)). Details: light urethane narcosis, 3 mg/kg i.v., pilocarpine 5 mg/kg s.c.
Type: in vivo
Method: The low anticholinergic action can be shown by the lack of salivation inhibition in rabbits: The salivation in rabbits under light urethane narcosis was increased by pilocarpine injection (5 mg/kg. s.c.) and the amount of saliva was measured at 5-minute intervals. The inhibition of salivation is expressed as a percentage based upon the salivation of animals which only received pilocarpine.

Structure (SMILES)	% Inhibition of Salivation [%]
Cc1cccc2c1CCc1ccccc1C2=CCCN(C)C.Cl [1-methyl-10,11-dihydro-5-(3-dimethylaminopropylidene)-5H-dibenzo[a,d]cycloheptene hydrochloride]	50
CNCCC=C1c2ccccc2CCc2c(C)cccc21.Cl [1-methyl-10,11-dihydro-5-(3-methylaminopropylidene)-5H-dibenzo [a,d]cycloheptene hydrochloride]	50
CNCCC=C1c2ccccc2C=Cc2c(C)cccc21.Cl [1-methyl-5-(3-methylaminopropylidene)-5H-dibenzo[a,d]cycloheptene hydrochloride]	60
Cc1cccc2c1C=Cc1ccccc1C2=CCCN(C)C.Cl [1-methyl-5-(3-dimethylaminopropylidene)-5H-dibenzo[a,d]cycloheptene hydrochloride]	60
Cc1cccc2c1C=Cc1ccccc1C2=CCC[N+](C)(C)[O-] [1-methyl-5-(3-dimethylaminopropylidene)-5H-dibenzo[a,d]cycloheptene N-oxide hydrochloride]	14

More lines, now with the values ahead:

% Inhibition of Salivation [%]	Structure (SMILES)
40	CNCCCC1c2ccccc2CCc2c(C)cccc21.Cl (stereo not shown) [1-methyl-10,11-dihydro-5-(3-methylaminopropyl)-5H-dibenzo[a,d]cycloheptene hydrochloride]
50	Cc1cccc2c1CCc1ccccc1C2CCCN(C)C.Cl (stereo not shown) [1-methyl-10,11-dihydro-5-(3-dimethylaminopropyl)-5H-dibenzo[a,d]cycloheptene hydrochloride]
